Measured values from article PMC3914206.

Tests used:
Format in all cases: binding
Conditions in all cases: Compound Concentration 10 µM
panel of 442 kinases [1] = target: panel of 442 kinases (Homo sapiens, UniProt P19784)
Description: (§1) We assessed the selectivity of members of this scaffold using the KINOMEscan methodology across a near comprehensive panel of 442 kinases [[18,27]].

panel of 442 kinases [2] = target: T1, panel of 442 kinases (Homo sapiens, UniProt Q9BUB5)
T1 construct: purchased KINOMEscan
T1 sequence (Q9BUB5 whole entry): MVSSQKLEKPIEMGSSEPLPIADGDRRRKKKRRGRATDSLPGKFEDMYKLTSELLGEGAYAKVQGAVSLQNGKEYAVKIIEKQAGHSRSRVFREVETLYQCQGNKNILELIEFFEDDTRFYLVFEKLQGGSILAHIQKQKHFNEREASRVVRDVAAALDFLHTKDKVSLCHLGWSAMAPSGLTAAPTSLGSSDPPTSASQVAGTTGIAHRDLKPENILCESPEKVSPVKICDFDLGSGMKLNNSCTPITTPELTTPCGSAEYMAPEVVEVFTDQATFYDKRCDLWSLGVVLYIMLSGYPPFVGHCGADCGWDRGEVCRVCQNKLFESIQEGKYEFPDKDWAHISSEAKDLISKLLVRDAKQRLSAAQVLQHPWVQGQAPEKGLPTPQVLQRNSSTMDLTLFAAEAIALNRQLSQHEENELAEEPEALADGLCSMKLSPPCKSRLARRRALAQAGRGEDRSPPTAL
Description: as §1

panel of 442 kinases [3] = target: T2, panel of 442 kinases (Homo sapiens, UniProt P49760)
T2 construct: purchased KINOMEscan
T2 sequence (P49760 whole entry): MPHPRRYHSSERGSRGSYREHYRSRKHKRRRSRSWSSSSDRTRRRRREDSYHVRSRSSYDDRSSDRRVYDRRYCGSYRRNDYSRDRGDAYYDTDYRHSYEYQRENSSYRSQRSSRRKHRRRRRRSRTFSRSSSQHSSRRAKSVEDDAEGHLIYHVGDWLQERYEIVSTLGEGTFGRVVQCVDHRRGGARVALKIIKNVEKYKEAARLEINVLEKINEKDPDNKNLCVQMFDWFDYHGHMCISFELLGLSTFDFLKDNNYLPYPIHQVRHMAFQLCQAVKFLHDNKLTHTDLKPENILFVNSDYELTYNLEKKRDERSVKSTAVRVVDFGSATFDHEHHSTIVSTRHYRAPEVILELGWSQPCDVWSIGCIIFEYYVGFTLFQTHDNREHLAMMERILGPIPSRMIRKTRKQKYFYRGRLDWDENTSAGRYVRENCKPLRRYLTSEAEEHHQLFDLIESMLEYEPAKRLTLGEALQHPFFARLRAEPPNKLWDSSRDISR
Description: as §1

panel of 442 kinases [4] = target: T3, panel of 442 kinases (Homo sapiens, UniProt Q8IVW4)
T3 construct: purchased KINOMEscan
T3 sequence (Q8IVW4 whole entry): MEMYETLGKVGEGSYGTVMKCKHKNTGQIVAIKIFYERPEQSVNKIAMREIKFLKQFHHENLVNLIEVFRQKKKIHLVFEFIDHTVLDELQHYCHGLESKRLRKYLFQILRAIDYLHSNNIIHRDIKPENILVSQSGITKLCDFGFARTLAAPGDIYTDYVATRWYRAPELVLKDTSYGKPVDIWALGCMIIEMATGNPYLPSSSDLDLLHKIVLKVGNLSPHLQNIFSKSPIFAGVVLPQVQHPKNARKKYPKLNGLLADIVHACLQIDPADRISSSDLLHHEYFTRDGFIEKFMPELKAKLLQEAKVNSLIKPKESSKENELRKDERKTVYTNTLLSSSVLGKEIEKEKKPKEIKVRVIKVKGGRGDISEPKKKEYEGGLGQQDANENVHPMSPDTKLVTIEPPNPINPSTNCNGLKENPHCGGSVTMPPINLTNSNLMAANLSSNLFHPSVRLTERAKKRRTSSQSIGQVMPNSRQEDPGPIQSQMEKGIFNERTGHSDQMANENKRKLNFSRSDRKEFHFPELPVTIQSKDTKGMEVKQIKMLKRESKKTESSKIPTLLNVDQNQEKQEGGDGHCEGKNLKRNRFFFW
Description: as §1

Sequence of panel of 442 kinases (Homo sapiens, UniProt P19784) (P19784 whole entry): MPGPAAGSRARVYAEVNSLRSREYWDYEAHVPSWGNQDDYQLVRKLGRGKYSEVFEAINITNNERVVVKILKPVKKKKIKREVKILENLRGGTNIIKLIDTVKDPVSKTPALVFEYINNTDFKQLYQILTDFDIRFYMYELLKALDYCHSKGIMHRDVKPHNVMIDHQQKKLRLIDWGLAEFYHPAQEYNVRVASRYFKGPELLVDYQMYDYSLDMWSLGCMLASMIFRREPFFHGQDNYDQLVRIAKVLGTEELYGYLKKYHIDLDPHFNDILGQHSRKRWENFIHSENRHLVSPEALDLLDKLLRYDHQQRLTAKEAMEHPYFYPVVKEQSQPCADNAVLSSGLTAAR

Row | SMILES | KINOMEscan: CSNK2A2 (panel of 442 kinases [1]) | KINOMEscan: MKNK1 (panel of 442 kinases [2]) | KINOMEscan: CLK2 (panel of 442 kinases [3]) | KINOMEscan: CDKL3 (panel of 442 kinases [4])
1 | CCOc1cc(C(=O)N2CCC(N3CCN(C)CC3)CC2)ccc1Nc1ncc2c(n1)N(C1CCCC1)c1ccccc1C(=O)N2C [Compound 26] | 97 | 96 | 86 | 99
2 | COc1cc(C(=O)N2CCC(N3CCN(C)CC3)CC2)ccc1Nc1ncc2c(n1)N(C1CCCC1)c1ccccc1C(=O)N2C [Compound 25, 11-cyclopentyl-2-((2-methoxy-4-(4-(4-methylpiperazin-1-yl)piperidine-1-carbonyl)phenyl)amino)-5-methyl-5H-benzo[e]pyrimido[5,4-b][1,4]diazepin-6(11H)-one] | 100 | 100 | 79 | 73
3 | COc1cc(C(=O)N2CCC(N3CCN(C)CC3)CC2)ccc1Nc1ncc2c(n1)N1CCc3cccc(c31)C(=O)N2C [Compound 24] | – | – | 25 | 81
4 | COc1cc(C(=O)N2CCC(N3CCN(C)CC3)CC2)ccc1Nc1ncc2c(n1)N(C)c1ccccc1C(=O)N2C [15 (LRRK2-IN-1)] | 93 | 50 | 72 | 83
